The test system of one data set is SH-SY5Y. The experiment in a line: Protection against amyloid beta oligomer-induced cytotoxicity in human SH-SY5Y cells expressing wild-type Tau assessed as cell viability at 10 uM by MTT assay. To be noted: read-out: Activity. The class given is functional.
The target in data set [1] is T1, Acetylcholinesterase (Homo sapiens, UniProt P22303). The experiment in a line: Binding affinity to AChE (unknown origin) assessed as dissociation constant by SPR analysis.
A further data set has as its system HEL 299. The experiment in a line: Cytotoxicity against HEL 299 cells by MTT assay. The class given is cell-based. As to conditions: human.
A short description of data set [2]: Permeability in human Caco-2 cells. The class given is ADME, cell-based.
Data set [3] is described as follows: Stability of compound in intestinal juice.
The nature of data set [4]: Metabolic stability in human plasma. The class given is ADME, cell-free.
The nature of data set [5]: Permeability of compound by PAMPA-BBB assay.
Data set [6] in a line: Stability of compound in gastric fluid. To be noted: simulated gi fluid. The class given is physicochemical.
For data set [7], the target named is T2, Microtubule-associated protein tau (Homo sapiens, UniProt P10636). In words: Binding affinity to tau (unknown origin) assessed as dissociation constant by microscale thermophoresis assay.
In data set [8] the target is T2, Microtubule-associated protein tau. The experiment in a line: Binding affinity to tau (unknown origin) assessed as dissociation constant by isothermal titration calorimetry.
For data set [9] the target is unchanged. In words: Binding affinity to tau (unknown origin) assessed as exothermal interaction by isothermal titration calorimetry.
The target is the same in data set [10]. The experiment in a line: Binding affinity to tau (unknown origin) assessed as dissociation constant by SPR analysis.
The target is the same in data set [11]. The experiment in a line: Inhibition of tau oligomerization in human […] cells by TR-FRET assay. Type of data set: cell-based.
The target in data set [12] is T1, Acetylcholinesterase. The experiment in a line: Mixed inhibition of AChE (unknown origin) using acetylthiocholine iodide as substrate by UV-vis spectrophotometry based Lineweaver-burk plot analysis.
Data set [13] addresses T1, Acetylcholinesterase. In words: Inhibition of AChE (unknown origin) using acetylthiocholine iodide as substrate by UV-vis spectrophotometry based Ellman's method.

Active and inactive are the calls of the source. The calls are words filed in the database; no cut-off is given here.

T2 sequence (P10636 whole entry): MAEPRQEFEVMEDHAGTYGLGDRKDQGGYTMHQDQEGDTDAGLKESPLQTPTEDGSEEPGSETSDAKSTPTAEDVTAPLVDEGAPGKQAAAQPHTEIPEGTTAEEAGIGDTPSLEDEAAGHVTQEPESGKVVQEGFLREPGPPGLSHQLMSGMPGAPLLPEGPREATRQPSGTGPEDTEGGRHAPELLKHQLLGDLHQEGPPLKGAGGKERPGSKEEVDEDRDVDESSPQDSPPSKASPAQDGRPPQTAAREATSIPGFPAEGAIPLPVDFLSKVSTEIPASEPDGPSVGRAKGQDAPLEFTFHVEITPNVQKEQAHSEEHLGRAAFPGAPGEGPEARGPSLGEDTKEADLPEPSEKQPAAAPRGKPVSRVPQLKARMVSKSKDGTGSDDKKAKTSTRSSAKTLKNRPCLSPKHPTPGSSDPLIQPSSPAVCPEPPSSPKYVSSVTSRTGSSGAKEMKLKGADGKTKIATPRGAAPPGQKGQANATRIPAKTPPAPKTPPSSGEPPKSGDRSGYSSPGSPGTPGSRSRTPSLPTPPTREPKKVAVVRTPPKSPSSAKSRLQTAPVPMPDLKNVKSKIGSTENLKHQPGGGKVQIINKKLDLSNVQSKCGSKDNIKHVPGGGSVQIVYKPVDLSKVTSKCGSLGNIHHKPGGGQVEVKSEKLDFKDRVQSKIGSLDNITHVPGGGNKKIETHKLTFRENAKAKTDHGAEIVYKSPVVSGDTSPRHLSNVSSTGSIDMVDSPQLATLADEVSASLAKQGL
T1 sequence (P22303 whole entry): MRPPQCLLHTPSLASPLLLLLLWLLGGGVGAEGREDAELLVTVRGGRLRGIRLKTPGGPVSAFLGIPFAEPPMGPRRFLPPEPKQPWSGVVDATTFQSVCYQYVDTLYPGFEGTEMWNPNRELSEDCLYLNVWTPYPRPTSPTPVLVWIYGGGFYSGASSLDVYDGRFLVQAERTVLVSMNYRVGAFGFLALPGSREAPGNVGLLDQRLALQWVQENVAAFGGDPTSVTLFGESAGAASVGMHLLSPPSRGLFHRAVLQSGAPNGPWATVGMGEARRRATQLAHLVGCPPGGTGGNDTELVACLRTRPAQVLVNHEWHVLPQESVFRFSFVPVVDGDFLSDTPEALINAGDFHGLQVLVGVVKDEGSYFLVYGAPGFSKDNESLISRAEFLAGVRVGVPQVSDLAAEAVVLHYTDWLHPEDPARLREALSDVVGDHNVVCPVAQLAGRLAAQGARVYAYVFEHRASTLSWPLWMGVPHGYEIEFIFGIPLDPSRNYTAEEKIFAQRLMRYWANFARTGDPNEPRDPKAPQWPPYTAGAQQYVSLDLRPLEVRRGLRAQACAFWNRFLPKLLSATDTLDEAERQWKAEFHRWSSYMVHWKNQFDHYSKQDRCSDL

Turning to `CN(C)c1ccc2c(c1)Sc1cc(N(C)C)ccc1N2` [HYDROMETHYLTHIONINE], the viability at 10 µM in the data set on SH-SY5Y came out at 32.1%.

Regarding `Nc1c2c(nc3ccccc13)CCCC2` [TACRINE], the viability at 10 µM in the data set with SH-SY5Y was determined as 29.5%.

As for `CCn1cc(CNCc2c[nH]nc2-c2ccc(-c3ccccc3)cc2)cn1`, the Kd at Acetylcholinesterase [1] is 1.41 µM; in data set [7] it was 0.92 µM; in [8], 0.86 µM; in [10], 0.59 µM. Besides, the Activity result with HEL 299 is on record as “Non-Toxic”. Further, in data set [2], the permeability entry is “Permeable”. For the same compound, in data set [3], the Stability result is reported as “Stable”. In addition, the Stabilty result in [4] and in [6] was “Stable” throughout. In data set [5], this compound returned an apparent permeability coefficient (Papp) of 33.5 ×10⁻⁶ cm/s. Also, in the data set on SH-SY5Y, the viability at 10 µM is 75.1%. The deltaH in data set [9] is -36.9 kcal/mol. This compound came in with a concentration giving a half-maximal response (EC50) in data set [11] of 0.25 µM. Moreover, at Acetylcholinesterase [12], the inhibition entry is “Active”. The same compound returned an IC50 at Acetylcholinesterase [13] of 0.35 µM.

For `COc1cc2c(cc1OC)C(=O)C(CC1CCN(Cc3ccccc3)CC1)C2` (centres undefined) [DONEPEZIL], the viability at 10 µM with SH-SY5Y is 39.3%.

`CC(C)c1ccc2c(c1)c(SC(C)(C)C)c(CC(C)(C)C(=O)O)n2Cc1ccc(Cl)cc1`: the viability at 10 µM in the data set on SH-SY5Y is 52.4%.
